Laboratory results from the supplement of paper PMC10331698.
± gives the standard deviation of the averaged measurements.

Assays:
Assay in all cases: level (log10 ratio to DMSO vehicle control); higher = higher biomarker level / cell amount than vehicle control
Conditions in all cases: in DMSO
[1] = compound: OC(C(F)(F)F)(C(F)(F)F)C(O)(C(F)(F)F)C(F)(F)F [Perfluoropinacol]
Experimental: (§1)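 BioMAP Diversity Plus panel of 12 human primary cell co-culture systems (3C, 4H, LPS, SAg, BT, BF4T, BE3C, CASM3C, HDF3CGF, KF3CT, MyoF, Mphg). Compounds were added 1 h before stimulation and left for 24 h (MyoF 48 h; BT 72 h for soluble read-outs or 6 d for IgG). Biomarkers were read by ELISA, cytotoxicity by SRB, PBMC viability and proliferation by Alamar Blue. Each well value was divided by the mean of 8 DMSO control wells on the same plate and log10 transformed; duplicate blinded samples were tested at 4 concentrations.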

[2] = compound: O=S(=O)(OCC(F)(F)F)C(F)(F)C(F)(F)C(F)(F)C(F)(F)F [2,2,2-Trifluoroethyl perfluorobutanesulfonate]
Experimental: as §1

[3] = compound: O=C(O)C(F)(F)C(F)(F)C(=O)O [Tetrafluorosuccinic acid]
Experimental: as §1

[4] = compound: O=C(CC(=O)C(F)(F)C(F)(F)C(F)(F)F)c1cccs1 [(Perfluorobutyryl)-2-thenoylmethane]
Experimental: as §1

[5] = compound: O=C(Cl)C(F)(F)C(F)(F)C(F)(F)C(=O)Cl [Hexafluoroglutaryl chloride]
Experimental: as §1

[6] = compound: C=C(C)C(=O)OCC(F)(F)C(F)(F)C(F)(F)F [2,2,3,3,4,4,4-Heptafluorobutyl methacrylate]
Experimental: as §1

[7] = compound: O=S(=O)(O)CCC(F)(F)C(F)(F)C(F)(F)C(F)(F)F [4:2 Fluorotelomer sulfonic acid]
Experimental: as §1

Test System	level (log10) ([1]; 6700 nM)	level (log10) ([1]; 20000 nM)	level (log10) ([2]; 6700 nM)	level (log10) ([2]; 20000 nM)	level (log10) ([2]; 60000 nM)	level (log10) ([3]; 6700 nM)	level (log10) ([3]; 20000 nM)	level (log10) ([3]; 60000 nM)	level (log10) ([4]; 6700 nM)	level (log10) ([4]; 20000 nM)	level (log10) ([5]; 6700 nM)	level (log10) ([5]; 20000 nM)	level (log10) ([5]; 60000 nM)	level (log10) ([6]; 6700 nM)	level (log10) ([6]; 20000 nM)	level (log10) ([6]; 60000 nM)	level (log10) ([7]; 6700 nM)	level (log10) ([7]; 20000 nM)	level (log10) ([7]; 60000 nM)
SAg:CCL2/MCP-1	0.078 ± 0.018	-0.096 ± 0.0085	0.0045 ± 0.0064	0.0045 ± 0.019	0.0405 ± 0.033	-0.006 ± 0.02	-0.0095 ± 0.0035	-0.0085 ± 0.0064	-0.06 ± 0.0042	-0.146 ± 0.0014	-0.02 ± 0.017	-0.004 ± 0.041	0.017 ± 0.051	0.0075 ± 0.012	-0.011 ± 0.0028	0.017 ± 0.011	0.007 ± 0.0085	0.0185 ± 0.0035	0.0105 ± 0.013
SAg:CD38	-0.012 ± 0.021	-0.113 ± 0.023	-0.0185 ± 0.0092	-0.012 ± 0.0071	-0.0475 ± 0.032	-0.003 ± 0.027	0.001 ± 0.0028	0.006 ± 0.027	-0.08 ± 0.055	-0.223 ± 0.035	-0.021 ± 0.025	-0.031 ± 0.034	-0.031 ± 0.055	-0.0015 ± 0.03	0.007 ± 0.048	0.013 ± 0.068	-0.0135 ± 0.028	-0.0415 ± 0.019	-0.0245 ± 0.005
SAg:CD40	-0.021 ± 0.016	-0.146 ± 0.013	-0.0165 ± 0.018	-0.019 ± 0.017	-0.0635 ± 0.049	0 ± 0.023	0.001 ± 0.0014	-0.018 ± 0.0071	-0.27 ± 0.11	-0.412 ± 0.093	0.0105 ± 0.042	0.0085 ± 0.0021	-0.0085 ± 0.043	-0.038 ± 0.02	-0.032 ± 0.011	-0.023 ± 0.025	-0.006 ± 0.0071	0.0015 ± 0.019	-0.0225 ± 0.039
SAg:CD62E/E-Selectin	0.008 ± 0.0071	-0.15 ± 0.0021	-0.0065 ± 0.015	0.006 ± 0.018	0.03 ± 0.013	-0.015	-0.003 ± 0.016	0.0035 ± 0.0035	-0.164 ± 0.0092	-0.113 ± 0.02	-0.018 ± 0.03	-0.024 ± 0.014	-0.012 ± 0.0042	0.0045 ± 0.039	-0.0225 ± 0.011	0.0015 ± 0.019	-0.016 ± 0.0085	-0.011 ± 0.0071	0.009 ± 0.0071
SAg:CD69	-0.039 ± 0.017	-0.19 ± 0.033	-0.0025 ± 0.0092	-0.0175 ± 0.025	-0.049 ± 0.042	0.012 ± 0.061	0.0055 ± 0.025	0.023 ± 0.02	-0.128 ± 0.02	-0.166 ± 0.0085	-0.009 ± 0.021	-0.02 ± 0.018	-0.015 ± 0.0028	-0.016 ± 0.0099	-0.0215 ± 0.0021	-0.009 ± 0.0042	-0.023 ± 0.027	-0.0165 ± 0.028	-0.028 ± 0.037
SAg:CXCL8/IL-8	0.0725 ± 0.029	-0.139 ± 0.041	0.0205 ± 0.029	0.034 ± 0.024	0.134 ± 0.086	-0.0345 ± 0.039	-0.044 ± 0.021	-0.006 ± 0.064	-0.169 ± 0.058	-0.177 ± 0.0085	-0.024 ± 0.0071	-0.029 ± 0.042	0.0065 ± 0.005	-0.003 ± 0.061	-0.002 ± 0.075	0.006 ± 0.02	-0.048 ± 0.093	-0.007 ± 0.052	0.034 ± 0.042
SAg:CXCL9/MIG	-0.002 ± 0.0028	-0.005 ± 0.0014	0.0035 ± 0.015	-0.004 ± 0.0014	0 ± 0.013	-0.006 ± 0.0014	0.003	0.013 ± 0.0099	-0.0075 ± 0.0035	-0.0245 ± 0.011	0 ± 0.016	-0.0005 ± 0.011	0.013 ± 0.017	-0.004 ± 0.03	0.002 ± 0.011	0.009 ± 0.013	-0.0055 ± 0.013	-0.0075 ± 0.0064	0.0035 ± 0.005
SAg:PBMC Cytotoxicity	0.046 ± 0.033	0.0855 ± 0.0021	0.0065 ± 0.011	-0.013	0.012 ± 0.0057	-0.002 ± 0.048	0.0115 ± 0.013	0.039 ± 0.013	-0.0295 ± 0.019	-0.058 ± 0.03	0.0075 ± 0.0078	-0.022 ± 0.018	0.0185 ± 0.021	-0.0105 ± 0.037	0.015 ± 0.011	0.0075 ± 0.044	0.0015 ± 0.013	-0.007 ± 0.031	0.02 ± 0.0014
SAg:Proliferation	0.0035 ± 0.093	-0.163 ± 0.021	-0.0055 ± 0.032	-0.053 ± 0.023	-0.048 ± 0.018	0.017 ± 0.04	-0.0205 ± 0.032	0.049 ± 0.027	-0.298 ± 0.019	-0.585	0.0165 ± 0.026	0.0255 ± 0.013	0.001 ± 0.013	-0.042 ± 0.069	-0.004 ± 0.03	-0.0045 ± 0.033	-0.0615 ± 0.015	0.009 ± 0.054	-0.017 ± 0.041
SAg:SRB	-0.0285 ± 0.0078	-0.123 ± 0.0021	0.0025 ± 0.013	-0.0045 ± 0.0021	-0.005	-0.016 ± 0.023	-0.015 ± 0.011	-0.0225 ± 0.015	-0.012 ± 0.013	-0.0845 ± 0.0021	-0.0025 ± 0.0035	-0.0035 ± 0.0035	0.0045 ± 0.0021	-0.0005 ± 0.0078	0.0035 ± 0.0035	0.002 ± 0.0099	-0.0105 ± 0.005	-0.0085 ± 0.011	-0.009 ± 0.011
